From patent publication US6420374B1, “Use of xanthines as immunosuppressants and to inhibit allograft reactions” (Fred Hutchinson Cancer Research Center, priority 1990, dated 2002)
Entries after “also recorded” stand apart in the source; their conditions may differ. Where two headings read alike, the source gives them in different places.

Key:
[1] = test system: bidirectional MLR of blood mononuclear cells; test: Bidirectional mixed leukocyte reaction (MLR), tritiated thymidine (3Htdr) uptake; format: cell-based, human; conditions: for inhibition of 3Htdr uptake: blood mononuclear cells with PHA and in bidirectional MLR's, after 6 days in culture, concentration dependent; for T cell activation and proliferation: both by direct stimulation with PHA and in an MLR; for lowest concentration with significant suppression of 3Htdr uptake / most effective concentration (highest concentration tested): PHA / MLR cultures; for suppressing lymphocyte activation evidenced by MLR: in vitro
Source text: More particularly, co-cultivation of leukocytes from unrelated individuals leads to blast transformation and proliferation similar to that observed upon addition of mitogens to T-cells. The basis of this reaction appears to be the activation of T-cells from one individual by cell surface markers of another. Co-culturing of blood leukocytes from two individuals is referred to as “mixed leukocyte culture” or “MLC” and the reaction as “mixed leukocyte reaction” or “MLR”. Co-culturing of cells obtained from lymphoid organs is designated “mixed lymphocyte culture” or “mixed lymphocyte reaction”. Since even in the mixed leukocyte reaction, the participating cells are peripheral blood T lymphocytes, there is generally substantially no difference between the two types of culture. Thus, these expressions are used interchangeably herein.
MLR can be carried out using conventional techniques. Cultured cells for the MLR can be derived from peripheral blood, spleen, lymph nodes, or thymus. Cell number can vary by several orders of magnitude. The stimulating cells can be inactivated by irradiation or treatment with an antibiotic to disrupt DNA replication. The culture medium can be supplemented, if necessary, by serum proteins of autologous, syngeneic, allogeneic, or xenogeneic origin. Cultivation can be carried out over a period of several days. The degree of stimulation of responder cells by stimulating cells can be determined from the uptake rate of ^3H-thymidine or radiolabeled amino acids or by counting blasts and dividing cells. If a radiolabel is employed, it can be added to the culture several hours before harvesting.
When blood mononuclear cells from two unrelated individuals are cultured together, mutual stimulation occurs resulting in T cell activation and blastogenesis and ultimately in the generation of cytotoxic T cells and memory cells. This complex series of events, termed the mixed leukocyte reaction (MLR), requires genetic disparaties at the HLA-DR locus. Monocytic cells are needed for antigen processing and presentation. The MLR is thus measures lymphocyte recognition and response to non-self-antigens and serves as an in vitro representation of some of the cellular events associated with graft-versus-host disease (GVHD) and allograft rejection.
(§1) Results are the means SD of triplicate wells.
(§2) All values except those for M1 represent: the means of calculated results from 6 to 8 independent experiments. The M1 results are the average of 2 independent experiments.

TNF mRNA = TNF mRNA level in whole cellular RNA extracted from an MLR; format: cell-based, human; conditions: MLR containing the compound
Source text: There was no decrease in cell viability in the test cultures as assessed by trypan blue dye exclusion (cell viability >95% in all groups). When whole cellular RNA was extracted from an MLR, there was some upregulation of […] compared to cultures of the mononuclear cells cultured individually. However, basal levels of TNF mRNA were readily detectable, possibly due to some activation during the culture period. This was also reflected by significant levels of ^3Htdr uptake.

[2] = test system: T cell activation antigens (HLA-DR, transferrin receptor, IL-2 receptor, CD69; CD2); test: Expression of T cell activation antigens by direct immunofluorescence after 6 days in a bidirectional MLR; format: cell-based, human; conditions: for expression of CD69 / expression of HLA-DR / expression of the IL-2 receptor / expression of the transferrin receptor: to near the levels of mononuclear cells from a single donor
Description: The following fluorescein isothyoc:yanate (FITC) or phycoerythrin (PE) conjugated antibodies were used: IgGl and IgG2a isotype controls, anti-HLe-1 (CD45), anti-LeuM3 (CD14). anti-Leu4(cd3), anti-IL2-receptor (CD25), anti-transferrin receptor (CD71), anti-HLA-DR, and anti-Leu23 (CD69). (All antibodies were from Becton-Dickinson, San Jose, Calif.) Staining was performed using Manufacturer's recommendations ([…] antibody/10^6 cells in 0.1 ml of phosphate buffered saline for 20′ at room temperature). The cells were washed twice, resuspended and analyzed on a Becton-Dickinson FACSan flow cytometer operating under Consort 30 software. The lymphocyte analysis gate was determined on the basis of forward scatter and side scatter and confirmed by examination of two-color immunofluorescence display for CD4S and CD14. Data are presented as the percentage of cells with fluorescence greater than that of the appropriate isotype control.
During T cell activation, there is increased expression of certain cell surface determinants which can serve as markers of activation.

[3] = cited from earlier work; for rank among the metabolites of pentoxifylline: in vivo
TNF = test: Release of TNF into the culture medium; format: cell-based, human
TNF mRNA in U937 cells = conditions: cited from earlier work
[4] = test system: PHA-stimulated mononuclear cells; test: PHA-stimulated blood mononuclear cells, tritiated thymidine (3Htdr) uptake; format: cell-based, human; conditions: rhTNF 200 U/ml added at inception of culture
Source text: as §1, §2

[5] = human urine, Metabolites II and III together

CCOCn1cnc2c1c(=O)n(CCCCC(C)(C)O)c(=O)n2C [Compound 1, 7-ethoxymethyl-1-(5-hydroxy-5-methylhexyl)-3-methylxanthine]
inhibition of 3Htdr uptake [1]: actively inhibited | T cell activation and proliferation [1]: suppressed | level of TNF mRNA (TNF mRNA): significantly decreased | expression of CD2 (non-activation dependent pan-T antigen) [2]: no differences | expression of CD69 [2]: decreased | expression of HLA-DR [2]: decreased | expression of the IL-2 receptor [2]: decreased | expression of the transferrin receptor [2]: decreased

CC(O)CCCCn1c(=O)c2c(ncn2C)n(C)c1=O (centres unmarked) [Compound M1, 1-(5-hydroxyhexyl)-3,7-dimethylxanthine]
lowest concentration with significant suppression of 3Htdr uptake [1]: 0.01 mM | most effective concentration (highest concentration tested) [1]: 1 mM | inhibition of 3Htdr uptake [1]: actively inhibited | T cell activation and proliferation [1]: suppressed | amount found in urine ([3]; human urine): Only traces | rank among the metabolites of pentoxifylline [3]: major metabolites

CCCCn1c(=O)c2c(ncn2CC(C)=O)n(CCCC)c1=O [Denbufylline, 7-acetonyl-1,3-dibutyl-xanthine]
suppressing lymphocyte activation evidenced by MLR [1]: not effective | suppressing lymphocyte activation evidenced by MLR ([1]; listed as compound (III)): has not been demonstrated

Cn1cnc2c1c(=O)n(CCCCC(O)CO)c(=O)n2C (centres unmarked) [Metabolite II, 1-(5,6-dihydroxyhexyl)-3,7-dimethylxanthine]
share of the excretion products [3, 5]: approximately 12%

CC(O)C(O)CCCn1c(=O)c2c(ncn2C)n(C)c1=O (centres unmarked) [Metabolite III, 1-(4,5-dihydroxyhexyl)-3,7-dimethylxanthine]
share of the excretion products [3, 5]: approximately 12%

Cn1cnc2c1c(=O)n(CCCCC(=O)O)c(=O)n2C [Metabolite IV, 1-(4-carboxybutyl)-3,7-dimethylxanthine]
share of the excretion products ([3]; human urine): about 8%

Cn1cnc2c1c(=O)n(CCCC(=O)O)c(=O)n2C [Metabolite V, 1-(3-carboxypropyl)-3,7-dimethylxanthine]
share of the administered dose in urine ([3]; human urine, main urinary metabolite): 50-60% | rank among the metabolites of pentoxifylline [3]: major metabolites

CC(=O)CCCCn1c(=O)c2c(ncn2C)n(C)c1=O [PTX, 1-(5-oxohexyl)-3,7-dimethylxanthine]
lowest concentration with significant suppression of 3Htdr uptake [1]: 0.01 mM | most effective concentration (highest concentration tested) [1]: 1 mM | inhibition of 3Htdr uptake [1]: actively inhibited | T cell activation and proliferation [1]: suppressed | diminution (suppression) of the MLR after addition of recombinant human TNF ([1]; rhTNF 200 U/ml added at inception of culture): not abrogated; also recorded: not reversed | level of TNF mRNA (TNF mRNA): significantly decreased | release of the cytokine (TNF) into the culture medium (TNF): decreased | endotoxin induced upregulation of TNF mRNA (TNF mRNA in U937 cells): can prevent | diminution in response to PHA after addition of recombinant human TNF [4]: not abrogated | expression of CD2 (non-activation dependent pan-T antigen) [2]: no differences | expression of CD69 [2]: decreased | expression of HLA-DR [2]: decreased | expression of the IL-2 receptor [2]: decreased | expression of the transferrin receptor [2]: decreased
